Legend:
[1] = biological target: T1, FAP (Homo sapiens, UniProt Q12884); settings: literature [25]; cited from earlier work
T1 sequence (Q12884 1-760): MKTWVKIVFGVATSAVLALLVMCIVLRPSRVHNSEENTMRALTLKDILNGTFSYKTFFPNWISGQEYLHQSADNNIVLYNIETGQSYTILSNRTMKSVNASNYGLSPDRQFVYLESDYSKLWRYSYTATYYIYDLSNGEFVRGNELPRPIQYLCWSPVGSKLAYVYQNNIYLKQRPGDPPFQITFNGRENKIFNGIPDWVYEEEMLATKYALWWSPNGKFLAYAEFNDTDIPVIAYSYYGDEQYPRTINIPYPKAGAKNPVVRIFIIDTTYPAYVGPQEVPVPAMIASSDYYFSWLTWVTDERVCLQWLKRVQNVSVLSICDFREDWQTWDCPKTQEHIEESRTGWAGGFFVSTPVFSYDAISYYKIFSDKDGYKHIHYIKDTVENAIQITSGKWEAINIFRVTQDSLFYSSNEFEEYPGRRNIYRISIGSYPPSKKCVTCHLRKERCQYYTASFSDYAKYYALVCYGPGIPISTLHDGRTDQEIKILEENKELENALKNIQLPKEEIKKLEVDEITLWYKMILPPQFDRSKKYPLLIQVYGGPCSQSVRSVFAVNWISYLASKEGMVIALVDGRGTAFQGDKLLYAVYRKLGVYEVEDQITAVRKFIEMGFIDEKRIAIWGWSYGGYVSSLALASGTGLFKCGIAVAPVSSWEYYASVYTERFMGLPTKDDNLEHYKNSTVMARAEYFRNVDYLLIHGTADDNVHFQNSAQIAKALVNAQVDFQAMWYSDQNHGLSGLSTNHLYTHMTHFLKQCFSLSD

[2] = tested on: HEK293T:hFAP tumor xenografts; assay: Ex vivo biodistribution of 68Ga-labeled tracers in HEK293T:hFAP tumor-bearing mice; settings: for Uptake in HEK293T:hFAP tumor xenografts, comparison in words: 68Ga-SB03178 vs 68Ga-FAPI-4, 68Ga-SB04033 vs 68Ga-SB03178
Experimental: (§1) All imaging and biodistribution studies were performed using male NOD-scidIL2Rg^null (NRG) mice and conducted according to the guidelines established by the Canadian Council on Animal Care and approved by Animal Ethics Committee of the University of British Columbia. For tumor inoculations, mice were anesthetized by inhalation with 2% isoflurane in oxygen and implanted subcutaneously with 7.5×10^6 HEK293T:hFAP or U87 cells below the left shoulder. Imaging and biodistribution studies were performed only after tumors grew to 5-8 mm in diameter.
(§2) For ex vivo biodistribution studies, mice were injected with -1-3 MBq of the ^68Ga-labeled tracer. Mice were allowed to recover and roam freely in the cages after injecting the tracer. […] The uptake in each organ/tissue was normalized to the injected dose and expressed as the percentage of the injected dose per gram of tissue (% ID/g).
Biodistribution data for ^68Ga-SB03178, ^68Ga-SB04033, and ^68Ga-FAPI-4 in mice bearing FAP tumor xenografts are presented in Tables 5-7. Data are presented as mean±SD % ID/g.

[3] = tested on: U87 xenografts; assay: Ex vivo biodistribution of 68Ga-labeled tracer in U87 tumor-bearing mice; settings: U87 tumor model, mean±SD
Experimental: as §1
as §2, with “ID/g). […]” for “ID/g).”

[4] = HEK293T:hFAP tumor xenograft mice, 1 h post-injection, Table 5, mean±SD
[5] = HEK293T:hFAP tumor model, 1 h post-injection (n = 4), mean±SD
[6] = HEK293T:hFAP tumor model, 3 h post-injection (n = 2), mean±SD

Compound: N#C[C@@H]1CCCN1C(=O)CNC(=O)c1ccnc2ccc(OCCCN3CCN(C(=O)CN4CCN(CC(=O)O)CCN(CC(=O)O)CCN(CC(=O)O)CC4)CC3)cc12 [^68Ga-FAPI-2, metal not drawn]
- Tumor uptake over time [1]: reduced quickly over time

Compound: N#C[C@@H]1CC(F)(F)CN1C(=O)CNC(=O)c1ccnc2ccc(OCCCN3CCN(C(=O)CN4CCN(CC(=O)O)CCN(CC(=O)O)CCN(CC(=O)O)CC4)CC3)cc12 [^68Ga-FAPI-4, metal not drawn, reference compound]
- Biodistribution: Adrenal Glands [2, 4]: 1.09 ± 0.31 % ID/g
- Biodistribution: Blood [2, 4]: 1.09 ± 0.08 % ID/g
- Biodistribution: Bone [2, 4]: 3.39 ± 1.03 % ID/g
- Biodistribution: Brain [2, 4]: 0.05 ± 0.01 % ID/g
- Biodistribution: Fat [2, 4]: 0.11 ± 0.02 % ID/g
- Biodistribution: Heart [2, 4]: 0.35 ± 0.03 % ID/g
- Biodistribution: Kidneys [2, 4]: 1.86 ± 0.10 % ID/g
- Biodistribution: Liver [2, 4]: 0.37 ± 0.02 % ID/g
- Biodistribution: Lungs [2, 4]: 0.75 ± 0.09 % ID/g
- Biodistribution: Muscle [2, 4]: 0.68 ± 0.04 % ID/g
- Biodistribution: Pancreas [2, 4]: 0.38 ± 0.04 % ID/g
- Biodistribution: Spleen [2, 4]: 0.57 ± 0.13 % ID/g
- Biodistribution: Stomach [2, 4]: 0.07 ± 0.02 % ID/g
- Biodistribution: Testes [2, 4]: 0.29 ± 0.04 % ID/g
- Biodistribution: Tumor [2, 4]: 12.7±2.19 % ID/g
- Tumor uptake over time [1]: reduced quickly over time

Compound: N#C[C@@H]1CC(F)(F)CN1C(=O)CNC(=O)c1ccnc2c1cc(OCCCN1CCN(C(=O)CN3CCN(CC(=O)O)CCN(CC(=O)O)CCN(CC(=O)O)CC3)CC1)c1ccccc12 [^68Ga-SB03178, metal not drawn]
- Uptake in HEK293T:hFAP tumor xenografts, comparison in words [2]: higher uptake
- Biodistribution: Adrenal Glands [2, 5]: 3.01 ± 2.86 % ID/g
- Biodistribution: Blood [2, 5]: 2.59 ± 0.32 % ID/g
- Biodistribution: Bone [2, 5]: 1.89 ± 0.31 % ID/g
- Biodistribution: Brain [2, 5]: 0.06 ± 0.01 % ID/g
- Biodistribution: Fat [2, 5]: 0.22 ± 0.03 % ID/g
- Biodistribution: Heart [2, 5]: 0.71 ± 0.09 % ID/g
- Biodistribution: Kidneys [2, 5]: 9.58 ± 1.21 % ID/g
- Biodistribution: Large Intestines [2, 5]: 0.52 ± 0.21 % ID/g
- Biodistribution: Liver [2, 5]: 1.11 ± 0.15 % ID/g
- Biodistribution: Lungs [2, 5]: 1.66 ± 0.23 % ID/g
- Biodistribution: Muscle [2, 5]: 0.56 ± 0.08 % ID/g
- Biodistribution: Pancreas [2, 5]: 0.57 ± 0.05 % ID/g
- Biodistribution: Small Intestine [2, 5]: 1.04 ± 0.14 % ID/g
- Biodistribution: Spleen [2, 5]: 0.87 ± 0.30 % ID/g
- Biodistribution: Stomach [2, 5]: 0.27 ± 0.19 % ID/g
- Biodistribution: Testes [2, 5]: 0.44 ± 0.08 % ID/g
- Biodistribution: Tumor [2, 5]: 21.0 ± 3.84 % ID/g
- Biodistribution: Adrenal Glands [2, 6]: 0.31 ± 0.06 % ID/g
- Biodistribution: Blood [2, 6]: 1.35 ± 1.18 % ID/g
- Biodistribution: Bone [2, 6]: 0.38 ± 0.07 % ID/g
- Biodistribution: Brain [2, 6]: 0.02 ± 0.00 % ID/g
- Biodistribution: Fat [2, 6]: 0.11 ± 0.10 % ID/g
- Biodistribution: Heart [2, 6]: 0.15 ± 0.06 % ID/g
- Biodistribution: Kidneys [2, 6]: 3.89 ± 1.35 % ID/g
- Biodistribution: Large Intestines [2, 6]: 0.53 ± 0.13 % ID/g
- Biodistribution: Liver [2, 6]: 0.33 ± 0.13 % ID/g
- Biodistribution: Lungs [2, 6]: 0.39 ± 0.08 % ID/g
- Biodistribution: Muscle [2, 6]: 0.13 ± 0.08 % ID/g
- Biodistribution: Pancreas [2, 6]: 0.17 ± 0.05 % ID/g
- Biodistribution: Small Intestine [2, 6]: 0.34 ± 0.21 % ID/g
- Biodistribution: Spleen [2, 6]: 0.24 ± 0.07 % ID/g
- Biodistribution: Stomach [2, 6]: 0.06 ± 0.02 % ID/g
- Biodistribution: Testes [2, 6]: 0.12 ± 0.03 % ID/g
- Biodistribution: Tumor [2, 6]: 6.58 ± 1.98 % ID/g
- Biodistribution: Adrenal Glands [2, 4]: 3.48 ± 3.31 % ID/g
- Biodistribution: Blood [2, 4]: 3.00 ± 0.38 % ID/g
- Biodistribution: Bone [2, 4]: 2.18 ± 0.35 % ID/g
- Biodistribution: Brain [2, 4]: 0.07 ± 0.01 % ID/g
- Biodistribution: Fat [2, 4]: 0.25 ± 0.04 % ID/g
- Biodistribution: Heart [2, 4]: 0.82 ± 0.10 % ID/g
- Biodistribution: Kidneys [2, 4]: 11.1 ± 1.40 % ID/g
- Biodistribution: Liver [2, 4]: 1.29 ± 0.17 % ID/g
- Biodistribution: Lungs [2, 4]: 1.92 ± 0.26 % ID/g
- Biodistribution: Muscle [2, 4]: 0.65 ± 0.09 % ID/g
- Biodistribution: Pancreas [2, 4]: 0.66 ± 0.06 % ID/g
- Biodistribution: Spleen [2, 4]: 1.00 ± 0.35 % ID/g
- Biodistribution: Stomach [2, 4]: 0.32 ± 0.22 % ID/g
- Biodistribution: Testes [2, 4]: 0.51 ± 0.09 % ID/g
- Biodistribution: Tumor [2, 4]: 24.3±4.44 % ID/g
- Biodistribution: Adrenal Glands ([3]; 1 h post-injection (n = 3)): 1.41 ± 0.38 % ID/g
- Biodistribution: Blood ([3]; 1 h post-injection (n = 3)): 3.55 ± 0.22 % ID/g
- Biodistribution: Bone ([3]; 1 h post-injection (n = 3)): 2.51 ± 0.66 % ID/g
- Biodistribution: Brain ([3]; 1 h post-injection (n = 3)): 0.07 ± 0.01 % ID/g
- Biodistribution: Fat ([3]; 1 h post-injection (n = 3)): 0.28 ± 0.18 % ID/g
- Biodistribution: Heart ([3]; 1 h post-injection (n = 3)): 0.80 ± 0.06 % ID/g
- Biodistribution: Kidneys ([3]; 1 h post-injection (n = 3)): 8.92 ± 1.32 % ID/g
- Biodistribution: Large Intestines ([3]; 1 h post-injection (n = 3)): 0.44 ± 0.09 % ID/g
- Biodistribution: Liver ([3]; 1 h post-injection (n = 3)): 1.12 ± 0.08 % ID/g
- Biodistribution: Lungs ([3]; 1 h post-injection (n = 3)): 1.66 ± 0.10 % ID/g
- Biodistribution: Muscle ([3]; 1 h post-injection (n = 3)): 0.57 ± 0.21 % ID/g
- Biodistribution: Pancreas ([3]; 1 h post-injection (n = 3)): 0.65 ± 0.11 % ID/g
- Biodistribution: Small Intestine ([3]; 1 h post-injection (n = 3)): 1.07 ± 0.03 % ID/g
- Biodistribution: Spleen ([3]; 1 h post-injection (n = 3)): 0.48 ± 0.08 % ID/g
- Biodistribution: Stomach ([3]; 1 h post-injection (n = 3)): 0.28 ± 0.12 % ID/g
- Biodistribution: Testes ([3]; 1 h post-injection (n = 3)): 0.65 ± 0.09 % ID/g
- Biodistribution: Tumor ([3]; 1 h post-injection (n = 3)): 16.3 ± 1.72 % ID/g
- Biodistribution: Adrenal Glands ([3]; 3 h post-injection (n = 3)): 0.49 ± 0.30 % ID/g
- Biodistribution: Blood ([3]; 3 h post-injection (n = 3)): 0.98 ± 0.09 % ID/g
- Biodistribution: Bone ([3]; 3 h post-injection (n = 3)): 1.11 ± 0.27 % ID/g
- Biodistribution: Brain ([3]; 3 h post-injection (n = 3)): 0.03 ± 0.00 % ID/g
- Biodistribution: Fat ([3]; 3 h post-injection (n = 3)): 0.09 ± 0.04 % ID/g
- Biodistribution: Heart ([3]; 3 h post-injection (n = 3)): 0.28 ± 0.01 % ID/g
- Biodistribution: Kidneys ([3]; 3 h post-injection (n = 3)): 9.63 ± 1.23 % ID/g
- Biodistribution: Large Intestines ([3]; 3 h post-injection (n = 3)): 1.15 ± 0.37 % ID/g
- Biodistribution: Liver ([3]; 3 h post-injection (n = 3)): 0.71 ± 0.05 % ID/g
- Biodistribution: Lungs ([3]; 3 h post-injection (n = 3)): 0.72 ± 0.11 % ID/g
- Biodistribution: Muscle ([3]; 3 h post-injection (n = 3)): 0.34 ± 0.07 % ID/g
- Biodistribution: Pancreas ([3]; 3 h post-injection (n = 3)): 0.27 ± 0.06 % ID/g
- Biodistribution: Small Intestine ([3]; 3 h post-injection (n = 3)): 0.56 ± 0.16 % ID/g
- Biodistribution: Spleen ([3]; 3 h post-injection (n = 3)): 0.34 ± 0.04 % ID/g
- Biodistribution: Stomach ([3]; 3 h post-injection (n = 3)): 0.24 ± 0.02 % ID/g
- Biodistribution: Testes ([3]; 3 h post-injection (n = 3)): 0.25 ± 0.03 % ID/g
- Biodistribution: Tumor ([3]; 3 h post-injection (n = 3)): 7.95 ± 0.29 % ID/g

Compound: C[C@@H](NC(=O)c1ccnc2c1cc(OCCCN1CCN(C(=O)CN3CCN(CC(=O)O)CCN(CC(=O)O)CCN(CC(=O)O)CC3)CC1)c1ccccc12)C(=O)N1CCC[C@H]1B(O)O [^68Ga-SB04033, metal not drawn]
- Uptake in HEK293T:hFAP tumor xenografts, comparison in words [2]: weaker uptake
- Biodistribution: Adrenal Glands [2, 5]: 0.65 ± 0.46 % ID/g
- Biodistribution: Blood [2, 5]: 3.62 ± 0.47 % ID/g
- Biodistribution: Bone [2, 5]: 1.52 ± 0.22 % ID/g
- Biodistribution: Brain [2, 5]: 0.08 ± 0.01 % ID/g
- Biodistribution: Fat [2, 5]: 0.30 ± 0.15 % ID/g
- Biodistribution: Heart [2, 5]: 0.95 ± 0.12 % ID/g
- Biodistribution: Kidneys [2, 5]: 10.3 ± 0.55 % ID/g
- Biodistribution: Large Intestines [2, 5]: 0.33 ± 0.03 % ID/g
- Biodistribution: Liver [2, 5]: 1.06 ± 0.11 % ID/g
- Biodistribution: Lungs [2, 5]: 2.13 ± 0.33 % ID/g
- Biodistribution: Muscle [2, 5]: 0.54 ± 0.11 % ID/g
- Biodistribution: Pancreas [2, 5]: 0.62 ± 0.05 % ID/g
- Biodistribution: Small Intestine [2, 5]: 1.53 ± 0.20 % ID/g
- Biodistribution: Spleen [2, 5]: 0.98 ± 0.27 % ID/g
- Biodistribution: Stomach [2, 5]: 0.30 ± 0.10 % ID/g
- Biodistribution: Testes [2, 5]: 0.59 ± 0.07 % ID/g
- Biodistribution: Tumor [2, 5]: 5.95 ± 0.16 % ID/g
